Measurements reported in PMC8159387 (Chemical Science, 2020).
Square brackets hold non-standard residues; d marks the D form. Peptide text beside a SMILES is read from it. * marks the point of attachment. CH2CH2OBz(4-tBu) = CC(C)(C)c1ccc(C(=O)OCC*)cc1; dDab = NCC[C@@H](N)C(=O)O; Dab = NCC[C@H](N)C(=O)O; Mpa = O=C(O)CCS

Tested on: E. coli, P. aeruginosa, A. calcoaceticus and S. aureus
Test: MIC and MBC summarised across the test species
Assay type: cell-based
Details: species not given

Structure (SMILES)	lowest MIC values of the CLipPA analogues [μM]
CC(C)C[C@H](NC(=O)[C@H](CCN)NC(=O)[C@H](CCN)NC(=O)[C@@H](Cc1ccccc1)NC(=O)[C@H](CC(C)C)NC(=O)[C@H](CCN)NC(=O)[C@H](CCN)NC(=O)[C@@H](CCN)NC(=O)[C@@H](N)CSCCOC(=O)c1ccc(C(C)(C)C)cc1)C(N)=O [Peptide 12f] (H-C(CH2CH2OBz(4-tBu))[dDab][Dab][Dab]L[dF][Dab][Dab]L-NH2)	8
CC(C)C[C@H](NC(=O)[C@H](CCN)NC(=O)[C@H](CCN)NC(=O)[C@@H](Cc1ccccc1)NC(=O)[C@H](CC(C)C)NC(=O)[C@H](CCN)NC(=O)[C@H](CCN)NC(=O)[C@@H](CCN)NC(=O)CCSCCOC(=O)c1ccc(C(C)(C)C)cc1)C(N)=O [Peptide 13f] ([Mpa](CH2CH2OBz(4-tBu))[dDab][Dab][Dab]L[dF][Dab][Dab]L-NH2)	8
